Measured values published in publication PMC2765639 (PLoS Neglected Tropical Diseases, 2009).
Where two headings read alike, the source gives them in different places.

Columns and labels:
L. major promastigotes [1] = assay: L. major promastigote drug susceptibility assay (alamar blue, 384-well); assay type: cell-based, Leishmania major
Experimental: Promastigotes were grown in vented T75 tissue culture flasks and maintained at 28°C. Promastigote cultures were initiated at 10^5 parasites per mL and subcultured every 3–4 days. L. major promastigote counts were performed in duplicate using a hemocytometer and particle counter (Beckman Coulter, Fullerton, CA). For HTS assays, L. major promastigote cultures were harvested during exponential growth phase (∼2.0–3.0×10^7 parasites/mL) and were not maintained past passage 20.
The final test compound concentration was 10 µM with a constant DMSO concentration of 1% in each assay well.
The L. major promastigote drug susceptibility assay was performed in a final volume of 25 µL using our previously described 384-well microtiter plate format,[39]. For automated HTS procedures, L. major promastigotes (5,000 parasites/22 µL) in complete growth medium were seeded into each well of the microtiter plates using a MAPC2 bulk dispenser (Titertek, Huntsville, AL). Test and control compounds (3 µL) were added to individual wells using a Velocity 11 V-prep (Menlo Park, CA) liquid handling system, equipped with a 384-well dispensing head, followed by centrifugation at 50 g for 1 min. […] Assay plates were allowed to incubate for 44 h at 28°C in the presence of 5% CO2. Five µL of alamar blue reagent were added to each assay plate well and incubated for 4 h at 28°C with 5% CO2. Data were captured on a Molecular Devices SpectraMax M5 (excitation560; emission590). Individual assay plate Z-factors were derived from the vehicle and positive controls, and data from plates were used only if Z-factors were >0.5 [50].
The assays were performed in duplicate with a final 10-point concentration range spanning 0.01–5.00 µM.

L. major promastigotes [2] = assay: Flow cytometer-based growth inhibition and cytotoxicity assay; details: 48 h, read-out: L. major promastigote EC50 (AVE±SD) Confirmation Flow Cytometry
A549 = assay: Mammalian cell line specificity assay (alamar blue); assay type: cell-based, human
Experimental: (§1) Mammalian cells were cultured and maintained according to ATCC specifications (ATCC, Manassas, VA). Cell line drug susceptibility assays were performed in final volumes of 25 µL using our previously described 384-well microtiter plate format,[39]. […] Test and control compounds were added to individual wells as described above. Vehicle and positive controls were 1% DMSO and 10% DMSO, respectively (final well concentrations). Assay plates were incubated for 44–46 h at 37°C in the presence of 5% CO2 and growth inhibitory effects were determined as described above. Five µL of alamar blue reagent was added to each well and incubated for 2–4 h. Data were captured as described above.

[3] = tested on: L. major axenic amastigote-like population; assay: L. major axenic amastigote-like alamar blue assay (pH 4.9); assay type: cell-based, Leishmania major; details: for growth inhibitory activity in axenic amastigote-like assay: pH 4.9
MDA-MB-231 = assay: Mammalian cell line specificity assay (alamar blue); assay type: cell-based, human; details: 44–46 h, alamar blue, read-out: MDA EC50 (AVE±SD)
Experimental: as §1

HeLa = assay: as above; assay type: cell-based, human; details: 44–46 h, alamar blue, read-out: HeLa EC50 (AVE±SD)
Experimental: as §1

PC-3 = assay: as above; assay type: cell-based, human; details: 44–46 h, alamar blue, read-out: PC-3 EC50 (AVE±SD)
Experimental: as §1

IMR-90 = assay: as above; assay type: cell-based, human; details: 44–46 h, alamar blue, read-out: IMR90 EC50 (AVE±SD)
Experimental: as §1

[4] = Leishmania major, read-out: EC50 Ave ± SD, Lm
[5] = Homo sapiens, A549, Table S1, PMLSC library samples, read-out: EC50 Ave ± SD, A549
[6] = Leishmania major, 144 h, pH 4.9, read-out: L. major axenic amastigote-like EC50 (AVE±SD) Confirmation Alamar Blue
[7] = Homo sapiens, A549, 44–46 h, alamar blue, read-out: A549 EC50 (AVE±SD)
[8] = Table S1, PMLSC library samples, 10-point 0.01–5.00 µM, read-out: EC50 Ave ± SD, Lm
[9] = Table S1, PMLSC library samples, read-out: EC50 Ave ± SD, A549

Row | Compound | EC50 (L. major promastigotes [1]; [4]) | EC50 (L. major promastigotes [2]; Leishmania major) | EC50 (A549; [5]) | EC50 [3, 6] | EC50 (L. major promastigotes [1]; [8]) | EC50 (A549; [9]) | further results
1 | Cc1ccc(S(=O)(=O)c2ccc(Oc3cccc(C)c3)cc2)cc1 [CID 786799] | 180 ± 35 nM | 2220 ± 110 nM | > 5000 nM | 3600 ± 130 nM |  |  | 
2 | CC(C)(C)c1ccc(C(=O)C2CCCN(C3CCC3)C2)cc1 (stereo not shown) [CID 16187595] | 14 ± 13 nM | 40 ± 10 nM |  | 2300 ± 200 nM |  |  | EC50 (A549; Homo sapiens, A549, read-out: EC50 Ave ± SD, A549): > 5000 nM
3 | CN(C)CCOc1ccccc1Cc1ccccc1 [Phenytoloxamine, reference compound] | 502 ± 87 nM | 300 ± 30 nM | > 5000 nM | > 50000 nM |  |  | EC50 (MDA-MB-231; Homo sapiens, MDA-MB-231): > 50000 nM; EC50 (HeLa; Homo sapiens, HeLa): > 50000 nM; EC50 (A549; [7]): > 50000 nM; EC50 (PC-3; Homo sapiens, PC-3): > 50000 nM; EC50 (IMR-90; Homo sapiens, IMR-90): > 50000 nM
4 | Cc1ccc(OCCCCn2ccnc2)c(Cl)c1 [CID 2851545] | 133 ± 35 nM | 340 ± 480 nM | > 5000 nM | 11700 ± 500 nM |  |  | 
5 | Pentamidine Isethionate [reference compound] |  |  |  |  |  |  | EC50 (L. major promastigotes [1]; read-out: EC50 Ave ± SD, Lm, Table S1, PMLSC library samples, 10-point 0.01–5.00 µM): 46 ± 12 nM; primary hit (≥50% inhibition of signal readout) (L. major promastigotes [1]; single concentration 10 µM, LOPAC, UP-CMLD DP validation set or PMLSC library): primary hits; EC50 (L. major promastigotes [2]; 28°C, ViaCount, 0.1–50 µM): 730 ± 390 nM; EC50 (MDA-MB-231): > 50000 nM; EC50 (HeLa): > 50000 nM; EC50 (A549; read-out: A549 EC50 (AVE±SD), 44–46 h, alamar blue): > 50000 nM; EC50 (A549; read-out: EC50 Ave ± SD, A549, Table S1, PMLSC library samples): > 5000 nM; EC50 (PC-3): > 50000 nM; EC50 (IMR-90): > 50000 nM; EC50 ([3]; read-out: L. major axenic amastigote-like EC50 (AVE±SD) Confirmation Alamar Blue, pH 4.9, 144 h, 32°C): 1260 ± 40 nM
6 | O=C1C2ON(c3ccc(Br)cc3)C(c3ccccn3)C2C(=O)N1C1CCCCC1 (stereo not shown) [CID 2946668] | 515 ± 66 nM | 350 ± 60 nM | > 5000 nM | 1200 ± 400 nM |  |  | 
7 | Cn1cc(CN2CCC(CO)CC2)c(-c2ccc(Oc3ccccc3)cc2)n1 [CID 16187569] |  |  |  |  | 165 ± 25 nM | > 5000 nM | 
8 | C[C@@]1(CO)[C@H](O)CC[C@@]2(C)[C@H]1CC[C@H]1C[C@@H]3C[C@@]12CC[C@]3(O)CO [Aphidicolin, reference compound] |  | 390 ± 110 nM | > 5000 nM |  |  |  | EC50 (L. major promastigotes [1]; Leishmania major, 48 h, compounds from commercial supplier, 44 h + 4 h alamar blue, 28°C, read-out: L. major promastigote EC50 (AVE±SD) Confirmation Alamar Blue): 220 ± 20 nM; EC50 (L. major promastigotes [1]; Leishmania major, Table S1, PMLSC library samples, 10-point 0.01–5.00 µM, read-out: EC50 Ave ± SD, Lm): 121 ± 20 nM; EC50 (MDA-MB-231; Homo sapiens, MDA-MB-231): > 50000 nM; EC50 (HeLa; Homo sapiens, HeLa): > 50000 nM; EC50 (A549; [7]): > 50000 nM; EC50 (PC-3; Homo sapiens, PC-3): > 50000 nM; EC50 (IMR-90; Homo sapiens, IMR-90): > 50000 nM; EC50 ([3]; Leishmania major, pH 4.9, 144 h, 32°C, read-out: L. major axenic amastigote-like EC50 (AVE±SD) Confirmation Alamar Blue): 50 ± 10 nM; growth inhibitory activity in axenic amastigote-like assay [3]: comparable to amphotericin B
9 | CCCCCCCCCCCCCCCC[n+]1cccc(C(=O)N(CC)CC)c1 [CID 12005597] |  |  |  |  | 629 ± 107 nM | 4070 ± 721 nM | 
10 | COc1cccc2c(=O)c(C/C=C(/C)Cl)c(C)[nH]c12 [CID 760847] | 108 ± 23 nM | 200 ± 50 nM | > 5000 nM | 210 ± 90 nM |  |  | growth inhibitory activity in axenic amastigote-like assay [3]: comparable to amphotericin B
11 | N#CC(c1ccc(Cl)cc1)c1ccc2c(C(F)(F)F)cc(C(F)(F)F)nc2n1 (stereo not shown) [CID 3564202] |  |  |  |  | 565 ± 35 nM | 2110 ± 77 nM | 
12 | CC1=C(C(=O)Nc2cc(-c3cccc(F)c3)[nH]n2)C2(CCCCC2)OC1=O [CID 5309827] |  |  |  |  | 382 ± 56 nM | > 5000 nM | 
13 | COc1ccc(/C=C/c2cc[n+](C(=O)Cc3ccccc3)cc2)cc1 [CID 16196001] |  |  |  |  | 50 ± 9 nM | > 5000 nM | 
14 | COc1ccc(S(=O)(=O)Nc2ccc(O)c3ccccc23)cc1 [CID 871185] |  |  |  |  | 287 ± 145 nM | > 5000 nM | 
15 | c1ccc2c(c1)OC(CCCN1CCCCC1)c1ccccc1S2 (stereo not shown) [CID 9549148] |  |  |  |  | 137 ± 40 nM | > 5000 nM | 
16 | CCc1ccc(NSc2ccccc2[N+](=O)[O-])cc1 [CID 2856077] |  |  |  |  | 751 ± 110 nM | > 5000 nM | 
17 | CCCOC(=O)CSC1=C(C#N)C(c2ccccc2Cl)CC(=O)N1 (stereo not shown) [CID 2855568] |  |  |  |  | 122 ± 12 nM | > 5000 nM | 
18 | COC(=O)C1CN(C#N)N(c2ccc(Cl)cc2)C12c1ccccc1-c1ccccc12 (stereo not shown) [CID 3609942] |  |  |  |  | 73 ± 13 nM | 2750 ± 73 nM | 
19 | COCCCN1CCN(c2nnc3n2-c2sc(Br)cc2C(c2ccccc2Cl)=NC3)CC1 [CID 11948854] |  |  |  |  | 607 ± 166 nM | > 5000 nM | 
